Experimental data reported in PMC4941645, “Oxidative Stress Induced by Pt(IV) Pro-drugs Based on the Cisplatin Scaffold and Indole Carboxylic Acids in Axial Position” (Scientific Reports, 2016).

How the values were obtained:
[1] = Reduction with ascorbic acid followed by 195Pt NMR; format: physicochemical; settings: 1 eq. ascorbic acid, 37 °C
Protocol: The reduction reaction of two representative complexes (1A and 1P) and the release of the indole carboxylic acid ligands was analyzed by HPLC using ascorbic acid as the reductant and 37 °C, pH 7 as physiological conditions (Fig. 4 and S1). The HPLC chromatograms of the reduction reaction of the complexes were compared with the chromatograms of pure samples of the carboxylic acid ligands. […] After 3 h incubation with 10 eq. of ascorbic acid 75% of 1P and 50% of 1A was reduced. […] We further studied the nature of the Pt(II) species produced upon the reduction of 1P and 1A by ^195Pt NMR. […] Unfortunately, monitoring the reduction reaction of the symetrically (2A and 2P) and unsymmetrically (3A–5A and 3P–5P) substituted dicarboxylato complexes was hampered by the poor solubility of the complexes in water and most organic solvents except DMF and DMSO. For the same reason the reduction potentials could not be determined by cyclic voltammetry. […]
Compounds 1A and 1P (10 mM) were incubated at 37 °C, respectively, in the presence of 10 mM ascorbic acid in 12 mM HEPES buffer at pH 7. […] The ^195Pt NMR spectra were recorded by inserting a tube with D2O into the NMR tube.

A375 melanoma cells = test: Cellular accumulation of Pt (GF-AAS); format: cell-based, human; settings: for cellular platinum accumulation (in words): A375, 1.5 and 3 μM, 6 and 24 h
A375 cells [2] = test: Mitochondrial membrane potential; format: cell-based, human; settings: A375, IC50 concentrations, 24 and 48 h
Protocol: A persistent increase in the rate of ROS production is responsible for the accumulation of ROS. In turn, an increase in cellular ROS leads to the loss of the mitochondrial membrane potential (ΔΨm, MMP), thus possibly leading to the induction of apoptosis. The effect induced by the Pt(IV) complexes on the MMP was assessed by treating A375 cells with IC50 concentrations of 1P and 1A and evaluating the energization of treated melanoma cells in terms of the retention of the cationic fluorescent probe tetramethyl rhodamine methyl ester (TMRM).
Figure 9 Effects of 1P and 1A on the cellular mitochondrial membrane potential. […] The percentage of cells with a hypopolarized mitochondrial membrane potential was determined fluorimetrically.
The ΔΨm was assayed using the Mito-ID® Membrane Potential Kit according to the manufacturer’s instructions (Enzo Life Sciences, Farmingdale, NY). Briefly, A375 cells (8 × 10^3 per well) were seeded in 96-well plates, after 24 h, cells were washed with PBS and loaded with Mito-ID Detection Reagent for 30 min at 37 °C in the dark. Afterwards, cells were washed with PBS and incubated with increasing concentrations of the tested complexes. The fluorescence was estimated using a plate reader (Fluoroskan Ascent FL, Labsystem, Finland) at 490 (excitation) and 590 nm (emission).

[3] = tested on: panel of human tumor cell lines (BxPC3, HCT-15, MCF-7, A431, A549, A375); test: MTT cytotoxicity, mean over panel of human tumor cell lines; format: cell-based; settings: mean over the six cell lines of Table 1, 72 h
Protocol: The cytotoxic activity of the complexes and of the uncoordinated ligands was evaluated by the MTT test on a panel of human tumor cell lines containing examples of pancreatic (BxPC3), colorectal (HCT-15), breast (MCF-7), cervical (A431), and lung (A549) cancers as well as of melanoma (A375). For comparison purposes, the cytotoxicity of cisplatin was evaluated under the same experimental conditions.
The growth inhibitory effect toward tumor cells was evaluated by means of the MTT assay. Briefly, (3–8) × 10^3 cells/well, dependent upon the growth characteristics of the cell line, were seeded in 96-well microplates in growth medium (100 μL). After 24 h, the medium was removed and replaced with fresh medium containing the compound to be studied at the appropriate concentration. Triplicate cultures were established for each treatment. After 24, 48, or 72 h, each well was treated with 10 μL of a 5 mg/mL MTT saline solution and, after 5 h of incubation, 100 μL of a sodium dodecylsulfate (SDS) solution in 0.01 M HCl was added. After an overnight incubation, cell growth inhibition was detected by measuring the absorbance of each well at 570 nm using a Bio-Rad 680 microplate reader. The mean absorbance for each drug dose was expressed as a percentage of the control, untreated well absorbance and plotted vs drug concentration. The IC50 values, the drug concentrations that decrease the mean absorbance at 570 nm to 50% of that of untreated control wells, were calculated from the dose–response curves with the four-parameter logistic model (4PL). The final value is the mean ± S.D. of at least three independent experiments performed in triplicate.

caspase-3 = test: Caspase-3 activation; format: cell-based, human; settings: A375, IC50 doses, 48 h
Protocol: Caspase-3 cleavage reached values similar to that exerted by the well-known caspase-dependent apoptosis inducer staurosporine.
Protein aliquots (100 μg) were stained at 37 °C for 60 min with fluorescent caspase-3 substrate N-acetyl-Asp-Glu-Val-Asp-AMC (AMC = 7-amino-4-methylcoumarin) (Sigma Co.). Substrate hydrolysis was measured after 60 min by monitoring the release of AMC using a spectrofluorimeter (excitation at 370 nm, emission at 460 nm).

[4] = Reduction with ascorbic acid followed by HPLC; format: physicochemical; settings: 10 eq. ascorbic acid, 37 °C, pH 7, HPLC; for complex reduced: 3 h incubation
Protocol: The reduction reaction of two representative complexes (1A and 1P) and the release of the indole carboxylic acid ligands was analyzed by HPLC using ascorbic acid as the reductant and 37 °C, pH 7 as physiological conditions (Fig. 4 and S1). The HPLC chromatograms of the reduction reaction of the complexes were compared with the chromatograms of pure samples of the carboxylic acid ligands. […] After 3 h incubation with 10 eq. of ascorbic acid 75% of 1P and 50% of 1A was reduced. […] We further studied the nature of the Pt(II) species produced upon the reduction of 1P and 1A by ^195Pt NMR. […] Unfortunately, monitoring the reduction reaction of the symetrically (2A and 2P) and unsymmetrically (3A–5A and 3P–5P) substituted dicarboxylato complexes was hampered by the poor solubility of the complexes in water and most organic solvents except DMF and DMSO. For the same reason the reduction potentials could not be determined by cyclic voltammetry. However it has been reported that the reduction rate of cis,cis,trans-[Pt(NH3)2Cl2(RCOO)(OH)] monocarboxylato complexes is faster than that of dicarboxylato complexes and this has been attributed to the fact that hydroxido ligands are much better bridging ligands for electron transfer than carboxylate ligands.
The reduction of the complexes 1A and 1P) with ascorbic acid was followed by HPLC using a Phenomenex Luna C18 ([…], 100 Å, 250 mm × 4.60 mm i.d.) column at a flow rate of 1.0 mL/min with 280 nm UV detection at room temperature. The mobile phase was 80:20 acetonitrile (1% trifluoroacetic acid) : water (1% trifluoroacetic acid). The complexes were dissolved in DMF (0.5 mL) and added to a 5 mM solution of ascorbic acid in 2 mM 4-(2-hydroxyethyl)piperazine-1-ethanesulfonic acid (HEPES) buffer (pH 7) and diluted to a final concentration of 0.5 mM using acetonitrile. The process was followed at 37 °C until complete reduction.

A375 cells [5] = test: Hoechst 33258 staining, apoptosis morphology; format: cell-based, human; settings: A375, IC50 doses, 48 h
Protocol: A375 cells were seeded into 8-well tissue-culture slides (BD Falcon, Bedford, MA, USA) at 5 × 10^4 cells/well (0.8 cm^2).

[NH2][Pt]([NH2])([OH])([Cl])([Cl])[O]C(=O)CCc1c[nH]c2ccccc12 [Complex 1P, cis,cis,trans-[Pt(NH3)2Cl2(IPA)(OH)]]
time to complete reduction [1]: 24 h
cellular platinum, times greater than cisplatin (A375 melanoma cells; A375, 3 μM, 24 h, GF-AAS): about 2.3
cellular platinum accumulation (in words) (A375 melanoma cells): internalized most efficiently
cells with decreased mitochondrial membrane potential (in words) (A375 cells [2]): significant and time-dependent increase
IC50 [3]: ~2500 nM
caspase-3 activity, factor over untreated control cells (caspase-3): ~5
time to complete reduction [4]: 24 h
complex reduced [4]: 75%
apoptotic morphology (in words) (A375 cells [5]): morphological features typical of cells undergoing apoptosis

[NH2][Pt]([NH2])([Cl])([Cl])([O]C(=O)CCC(=O)O)[O]C(=O)Cc1c[nH]c2ccccc12 [Complex 4A]
cellular platinum accumulation (in words) (A375 melanoma cells): lowest platinum accumulation
cellular uptake level, times lower than cisplatin (A375 melanoma cells; A375, GF-AAS): about 7

[NH2][Pt]([NH2])([OH])([Cl])([Cl])[O]C(=O)Cc1c[nH]c2ccccc12 [Complex 1A]
time to complete reduction [1]: 30 h
cells with decreased mitochondrial membrane potential (in words) (A375 cells [2]): significant and time-dependent increase
caspase-3 activity, factor over untreated control cells (caspase-3): ~5
time to complete reduction [4]: 30 h
complex reduced [4]: 50%
apoptotic morphology (in words) (A375 cells [5]): morphological features typical of cells undergoing apoptosis
